# According to US20120252852A1 (SANOFI, priority 2011, published 2012):
# Tests used:
# [1] = Level of impurities in dependency on pH and repeated autoclaving (1 mg/mL Otamixaban, citrate composition of Example 5, HPLC); format: physicochemical
# Description: The appropriate pH value was adjusted by using sodium hydroxide solution (1 M sodium hydroxide) or diluted hydrochloric acid (1 M hydrochloric acid). […] [table] […] The mobile phase was filtered through a 1.5 μm filter. Typically, add 500 mL of mobile phase A to 500 mL of acetonitrile. Mix and degas. [table] [table]
# [2] = Level of impurities in dependency on Otamixaban concentration and autoclaving (HPLC); format: physicochemical
# Description: Liquid pharmaceutical compositions were prepared containing 1, 5 or 50 mg/mL
# The appropriate pH value was adjusted by using sodium hydroxide solution (1 M sodium hydroxide) or diluted hydrochloric acid (1 M hydrochloric acid).
# [3] = repeated autoclaving, pH 2.5 to 4.7
smiles,measurement,setting,value
"COC(=O)[C@H](Cc1cccc(C(=N)N)c1)[C@@H](C)NC(=O)c1ccc(-c2cc[n+]([O-])cc2)cc1 (mixture of isomers) [Otamixaban, Methyl (2R,3R)-2-{3-[amino(imino)methyl]benzyl}-3-{[4-(1-oxidopyridin-4-yl)benzoyl]amino}butanoate]",Increase of Formula III (carbamoyl-benzyl butyric acid methyl ester),"[1]; pH 2.5, 0 autoclaving",0.39%
same,Increase of Formula III (carbamoyl-benzyl butyric acid methyl ester),"[1]; pH 2.5, 1 autoclaving",0.71%
same,Increase of Formula III (carbamoyl-benzyl butyric acid methyl ester),"[1]; pH 2.5, 2 autoclaving",1.02%
same,Increase of Formula III (carbamoyl-benzyl butyric acid methyl ester),"[1]; pH 2.5, 3 autoclaving",1.32%
same,Increase of Formula III (carbamoyl-benzyl butyric acid methyl ester),"[1]; pH 3.0, 0 autoclaving",0.39%
same,Increase of Formula III (carbamoyl-benzyl butyric acid methyl ester),"[1]; pH 3.0, 1 autoclaving",0.74%
same,Increase of Formula III (carbamoyl-benzyl butyric acid methyl ester),"[1]; pH 3.0, 2 autoclaving",1.09%
same,Increase of Formula III (carbamoyl-benzyl butyric acid methyl ester),"[1]; pH 3.0, 3 autoclaving",1.43%
same,Increase of Formula III (carbamoyl-benzyl butyric acid methyl ester),"[1]; pH 3.2, 0 autoclaving",0.39%
same,Increase of Formula III (carbamoyl-benzyl butyric acid methyl ester),"[1]; pH 3.2, 1 autoclaving",0.76%
same,Increase of Formula III (carbamoyl-benzyl butyric acid methyl ester),"[1]; pH 3.2, 2 autoclaving",1.13%
same,Increase of Formula III (carbamoyl-benzyl butyric acid methyl ester),"[1]; pH 3.2, 3 autoclaving",1.50%
same,Increase of Formula III (carbamoyl-benzyl butyric acid methyl ester),"[1]; pH 3.5, 0 autoclaving",0.39%
same,Increase of Formula III (carbamoyl-benzyl butyric acid methyl ester),"[1]; pH 3.5, 1 autoclaving",0.81%
same,Increase of Formula III (carbamoyl-benzyl butyric acid methyl ester),"[1]; pH 3.5, 2 autoclaving",1.23%
same,Increase of Formula III (carbamoyl-benzyl butyric acid methyl ester),"[1]; pH 3.5, 3 autoclaving",1.65%
same,Increase of Formula III (carbamoyl-benzyl butyric acid methyl ester),"[1]; pH 3.7 (first row), 0 autoclaving",0.39%
same,Increase of Formula III (carbamoyl-benzyl butyric acid methyl ester),"[1]; pH 3.7 (first row), 1 autoclaving",0.87%
same,Increase of Formula III (carbamoyl-benzyl butyric acid methyl ester),"[1]; pH 3.7 (first row), 2 autoclaving",1.33%
same,Increase of Formula III (carbamoyl-benzyl butyric acid methyl ester),"[1]; pH 3.7 (first row), 3 autoclaving",1.80%
same,Increase of Formula III (carbamoyl-benzyl butyric acid methyl ester),"[1]; pH 3.7 (second row), 0 autoclaving",0.39%
same,Increase of Formula III (carbamoyl-benzyl butyric acid methyl ester),"[1]; pH 3.7 (second row), 1 autoclaving",0.84%
same,Increase of Formula III (carbamoyl-benzyl butyric acid methyl ester),"[1]; pH 3.7 (second row), 2 autoclaving",1.28%
same,Increase of Formula III (carbamoyl-benzyl butyric acid methyl ester),"[1]; pH 3.7 (second row), 3 autoclaving",1.71%
same,Increase of Formula III (carbamoyl-benzyl butyric acid methyl ester),"[1]; pH 4.0, 0 autoclaving",0.39%
same,Increase of Formula III (carbamoyl-benzyl butyric acid methyl ester),"[1]; pH 4.0, 1 autoclaving",0.95%
same,Increase of Formula III (carbamoyl-benzyl butyric acid methyl ester),"[1]; pH 4.0, 2 autoclaving",1.48%
same,Increase of Formula III (carbamoyl-benzyl butyric acid methyl ester),"[1]; pH 4.0, 3 autoclaving",2.02%
same,Increase of Formula III (carbamoyl-benzyl butyric acid methyl ester),"[1]; pH 4.2, 0 autoclaving",0.39%
same,Increase of Formula III (carbamoyl-benzyl butyric acid methyl ester),"[1]; pH 4.2, 1 autoclaving",1.08%
same,Increase of Formula III (carbamoyl-benzyl butyric acid methyl ester),"[1]; pH 4.2, 2 autoclaving",1.75%
same,Increase of Formula III (carbamoyl-benzyl butyric acid methyl ester),"[1]; pH 4.2, 3 autoclaving",2.42%
same,Increase of Formula III (carbamoyl-benzyl butyric acid methyl ester),"[1]; pH 4.5, 0 autoclaving",0.39%
same,Increase of Formula III (carbamoyl-benzyl butyric acid methyl ester),"[1]; pH 4.5, 1 autoclaving",1.40%
same,Increase of Formula III (carbamoyl-benzyl butyric acid methyl ester),"[1]; pH 4.5, 2 autoclaving",2.37%
same,Increase of Formula III (carbamoyl-benzyl butyric acid methyl ester),"[1]; pH 4.5, 3 autoclaving",3.36%
same,Increase of Formula III (carbamoyl-benzyl butyric acid methyl ester),"[1]; pH 4.7, 0 autoclaving",0.39%
same,Increase of Formula III (carbamoyl-benzyl butyric acid methyl ester),"[1]; pH 4.7, 1 autoclaving",1.84%
same,Increase of Formula III (carbamoyl-benzyl butyric acid methyl ester),"[1]; pH 4.7, 2 autoclaving",3.20%
same,Increase of Formula III (carbamoyl-benzyl butyric acid methyl ester),"[1]; pH 4.7, 3 autoclaving",4.58%
same,Levels of Formula II (carbamimidoyl acid) versus pH,[1]; [3],minimum at pH 4
same,Levels of Formula III (carbamoyl methyl ester) versus pH,[1]; [3],lowest at the lowest pH
same,Increase of Formula III (carbamoyl-benzyl butyric acid methyl ester),"[2]; pH 4.2-4.3, 5 mg/mL, vial 5 mL, 20 min 123° C., 0 autoclaving",0.2%
same,Increase of Formula III (carbamoyl-benzyl butyric acid methyl ester),"[2]; pH 4.2-4.3, 5 mg/mL, vial 5 mL, 20 min 123° C., 1 autoclaving",0.9%
same,Increase of Formula III (carbamoyl-benzyl butyric acid methyl ester),"[2]; pH 4.2-4.3, 5 mg/mL, vial 5 mL, 20 min 123° C., 2 autoclaving",1.7%
same,Increase of Formula III (carbamoyl-benzyl butyric acid methyl ester),"[2]; pH 4.2-4.3, 5 mg/mL, vial 5 mL, 20 min 123° C., 3 autoclaving",2.5%
same,Increase of Formula III (carbamoyl-benzyl butyric acid methyl ester),"[2]; pH 4.2, 1 mg/mL, vial 50 mL, 20 min […] C., 0 autoclaving",0.4%
same,Increase of Formula III (carbamoyl-benzyl butyric acid methyl ester),"[2]; pH 4.2, 1 mg/mL, vial 50 mL, 20 min […] C., 1 autoclaving",1.3%
same,Increase of Formula III (carbamoyl-benzyl butyric acid methyl ester),"[2]; pH 4.2, 1 mg/mL, vial 50 mL, 20 min […] C., 2 autoclaving",2.3%
same,Increase of Formula III (carbamoyl-benzyl butyric acid methyl ester),"[2]; pH 4.2, 1 mg/mL, vial 50 mL, 25 min 125° C., 0 autoclaving",0.4%
same,Increase of Formula III (carbamoyl-benzyl butyric acid methyl ester),"[2]; pH 4.2, 1 mg/mL, vial 50 mL, 25 min 125° C., 1 autoclaving",1.3%
same,Increase of Formula III (carbamoyl-benzyl butyric acid methyl ester),"[2]; pH 4.2, 5 mg/mL, vial 5 mL, 20 min 123° C., 0 autoclaving",0.3%
same,Increase of Formula III (carbamoyl-benzyl butyric acid methyl ester),"[2]; pH 4.2, 5 mg/mL, vial 5 mL, 20 min 123° C., 1 autoclaving",1.0%
same,Increase of Formula III (carbamoyl-benzyl butyric acid methyl ester),"[2]; pH 4.2, 5 mg/mL, vial 5 mL, 20 min 123° C., 2 autoclaving",1.8%
same,Increase of Formula III (carbamoyl-benzyl butyric acid methyl ester),"[2]; pH 4.2, 5 mg/mL, vial 5 mL, 20 min 123° C., 3 autoclaving",2.6%
same,Increase of Formula III (carbamoyl-benzyl butyric acid methyl ester),"[2]; pH 4.2, 5 mg/mL, vial 50 mL, 25 min 125° C., 0 autoclaving",0.4%
same,Increase of Formula III (carbamoyl-benzyl butyric acid methyl ester),"[2]; pH 4.2, 5 mg/mL, vial 50 mL, 25 min 125° C., 1 autoclaving",1.4%
same,Increase of Formula III (carbamoyl-benzyl butyric acid methyl ester),"[2]; pH 4.2, 50 mg/mL, vial 5 mL, 20 min 123° C., 0 autoclaving",0.3%
same,Increase of Formula III (carbamoyl-benzyl butyric acid methyl ester),"[2]; pH 4.2, 50 mg/mL, vial 5 mL, 20 min 123° C., 1 autoclaving",1.1%
same,Increase of Formula III (carbamoyl-benzyl butyric acid methyl ester),"[2]; pH 4.2, 50 mg/mL, vial 5 mL, 20 min 123° C., 2 autoclaving",1.9%
